Test results taken from patent publication US6593365B1, “Diflunisal esters and related compounds” (The University of Queensland, priority 1997, dated 2003).
Like-named read-outs stand apart in the source and are kept apart here. Marks after values point to notes of the source that are not given here.

Experiments:
[1] = tested on: superoxide generated from xanthine oxidase plus xanthine reaction; assay: Xanthine oxidase plus xanthine-induced chemiluminescence; assay type: biochemical; parameters: dose or concentration left out as unconfirmed; settings: X: CL induced by xanthine oxidase plus xanthine
Procedure: To clarify the role of aspirin analogues and diflunisal esters in free radicals scavenging, the Fenton's reagent was replaced by an artificial superoxide generating system in the CL inhibition studies. This cell-free system consisted of 100 μg/mL of xanthine oxidase (Sigma) plus 0.5 μM xanthine (Sigma) (Rosen and Klebanoff, 1976, J Clin Invest 58 50-60; Cheson et al., 1976, J Clin Invest 58 789-796).
(§1) CL measurements were always done in triplicate and Student's t-test used to assess the statistical significance of the difference between measurements.

[2] = tested on: OH. generated from Fenton's reaction; assay: Luminol-dependent chemiluminescence induced by Fenton's reagent; assay type: biochemical; parameters: unit of the concentration uncertain; settings: F: CL induced by Fenton's reagent, n=3
Procedure: CL was measured with a luminometer (Model 1250; LKB Wallac, Finland) and recorded in millivolts (Cheung et al., 1984, supra).
Fenton's reagent (FeSO4 and H2O2) was used as a standard reaction mixture for the generation of OH. (Lai and Piette, 1979, Tetrahedron Lett. 775-778):
Fe^+++H2O2→Fe^++++OH.+OH (1)
The initial reaction mixture consisted of 20 μL of 3.8 mM FeSO4.7H2O, 20 μL of 5 mg/mL luminol (Sigma), and 2 mL of 1 mM phosphate buffer in a 3 mL polystyrene cuvette. Twenty microlitres of 320 mM H2O2 was added to initiate the Fenton's reaction.
A known concentration of the ethanolic (≲1%) aspirin analogue or diflunisal ester's stock solution was added to the 1 mM phosphate buffer to prepare solutions with a final concentration of 50 μM, 250 μM or 500 μM. Twenty microlitres of these test samples was added onto the cuvette which contained the initial reaction mixture. H2O2 was added to induce CL reaction. The luminol-dependent CL response was recorded in mV by a potentiometric recorder.
as §1

[3] = tested on: ischaemic/reperfusion rat livers; assay: Ischaemic/reperfusion injury in rat livers (LDH release, bile production); parameters: species or system Female Sprague-Dawley rats; settings: for EC50: Rattus norvegicus
Procedure: Female Sprague-Dawley rats (220-250 g) were anaesthetised by interperitoneal injection of pentobarbital sodium (60 mg/kg, Boehringer Ingelhein). […] The bile duct was cannulated with a polyethylene tubing (PE-10, I.D. 0.28 mm; Clay Adams, New Jersey) and bile was collected into pre-weighed microcentrifuge tubes at 70 min intervals (in the middle of experiment and the end of experiment). The portal vein was then cannulated using a 16 G intravenous catheter and the liver was perfused via this cannula with 2% BSA Krebs-Henseleit bicarbonate buffer (pH 7.4) and oxygenated using a membrane oxygenator comprising of silastic tubing and ventilated with carbogen (95% O2/5% CO2). The perfusion system used was recirculating and employed a peristaltic pump (Cole-Parmer, Illinois).
Following a 10 min pre-ischaemia perfusion, the perfusion flow was stopped for 30 min at 37° C. with the liver being kept moist. At the end of this ischaemic phase, a known concentration of the aspirin analogue or diflunisal ester's solution (in 2% BSA Krebs-Henseleit buffer) was added into the perfusate prior to the perfusion being resumed for another 100 min. Outflow fractions were collected up to 140 min. A biochemistry autoanalyzer (Hitachi, model 747; Tokyo, Japan) was employed to determine the level of enzyme (LDH) release.
The degree of ischaemic/reperfusion injury was measured by calculating the area under the LDH release ([…]) versus time curve (AUC). […] The efficacy of each compound is expressed in terms of ED50 which represents the molar dose for 50% reduction of LDH release compared to the control. The comparison of bile production between the first stage of experiment (the first 70 min) and the second stage of experiment (the last 70 min) is also used as index of liver function during an experiment.

[4] = tested on: human platelet rich plasma; assay: Platelet aggregation induced by arachidonic acid; assay type: cell-based; settings: compound 600 µM, 37° C., arachidonic acid 200 µM
Procedure: Platelet aggregation studies were carried out using a single channel Lumiaggregometer (Chrono-Log Company, Haverton, Pa.) at 37° C. using human platelet-rich and platelet-poor plasma. Platelet-rich plasma (PRP) with a platelet concentration of […] (measured with a Coulter counter) was prepared by centrifuging 3.8% citrated […] (1:9) at 1,500 rpm using a (Beckman) benchtop centrifuge at room temperature for 15 minutes. Platelet-poor plasma (PPP) was prepared by further centrifuging residual blood from platelet-rich plasma at 3,000 rpm for 30 minutes. Platelet-poor plasma was also confirmed b y Coulter counting for platelet content.
Platelet aggregation studies were preceded by pipetting 0.4 mL platelet-rich plasma into a stirred aggregometer tube and calibrate to 90% of recorder. Platelet-poor plasma was set to calibrate at 10% of recorder. Platelet aggregation was initiated by the addition of a arachidonic acid (Sigma) or ADP (Sigma).
10 mM solutions of each compound (TABLE 6) were prepared in 1 mL of normal saline solution (containing 4% BSA) before use. An aliquot (400 μL) of platelet-rich plasma was pipetted into a stirred aggregometer tube at 37° C. and 30 μL of test sample added simultaneously. This mixture was preincubated for varying period (3 to 45 minutes), then arachidonic acid (AA) was added (final conc.=200 μM) to initiate platelet aggregation. If no aggregation occurred, 20 μM ADP was added to confirm the vitality of the platelets (if the platelets are vital, ADP will induce this AA-test sample-plasma mixture to aggregate). This procedure is necessary to investigate whether the non-aggregation phenomenon is due to drug inhibition or simply due to inviable platelets (unable to respond to AA). The degree of aggregation was measure by calculating the area under the turbidimetric response curve (AUC).

[5] = tested on: in-situ perfused rat liver; assay: In-situ rat liver perfusions, hepatic extraction (Example 4); assay type: in vitro ADME; settings: protein-free Krebs-Henseleit buffer as perfusate; hepatic extraction=1- hepatic availability (F)
Procedure: The hepatic availability (F) for the O-acyl esters of SA and DF was determined using a once through in-situ perfused rat liver preparation (Mellick and Roberts, 1996, J Pharm Pharmacol 48:738-743). Liver was perfused with protein-free Krebs-Henseleit buffer at 30 mL/min for aspirin analogues and with Krebs-Henseleit buffer containing 2% BSA for diflunisal esters studies. Since the solubilities of the diflunisal esters in protein-free media were very low, 2% BSA were used to help to solubilize these compounds. Briefly, 50 μL of a saturated solution of the particular O-acyl SA or DF in Krebs-Henseleit buffer was injected as a bolus into the portal vein cannula. Perfusate outflow samples have collected via a fraction collector over 3 min. 100 μL of these samples was assayed by HPLC to determine the residual concentration of presented ester and the quantity of phenolic metabolite (SA or DF) collected from the perfused liver. The HPLC assay was a modification of the method used by Owen et al. (1987, J Chrom B Biomed Appl 416 293-302) and Rumble et al. (1981, J Chrom 225 252-260).
The hepatic availability (F) was calculated from the ratio of the area under the first moment curve, i.e., outflow concentration time-time profile to the area under the curve for the salicylate phenolic esters, with the assistance of the Moments Calculator 2.2 program for Macintosh computer developed by Robert Purves (1994, J Pharm Sci 83:202-205).

[6] = In vitro non-enzymatic hydrolysis in Krebs-Henseleit buffer; assay type: physicochemical; settings: pH 7.4, 25° C., n=5
Procedure: These experiments were carried out both in Krebs-Henseleit buffer containing either no protein or 2% w/v BSA (bovine serum albumin, fraction V, Sigma) at pH 7.4 and 25±1° C.
Solutions of the derivatives in Krebs buffer (10 mL) was prepared in siliconised glass tubes. Each solution was sonicated for 5 minutes and centrifuged for 5 minutes (3000 g) at 25° C. to ensure maximum dissolution and to sediment any undissolved precipitate. About 7.5 mL of the supernatant was then transferred to a clean siliconised test tube and a 100 μL aliquot was removed and assayed. […] The rate of non-enzymatic hydrolysis (k) for each derivative was then estimated using the following equation: […]
where C1 is the concentration of the ester at any time (t), and C0 is the concentration of the ester at time zero. The half-life (t½) was determined using the formula: […]

[7] = Intrinsic (maximum) solubility in water at pH 1.5; assay type: physicochemical; settings: water at pH 1.5, 25 1° C.; U = Undetectable
Procedure: The pH conditions were chosen to ensure that the solubility of the unionised species was estimated. […] Lea & Febiger/Philadelphia. […] […] The solvent (9.9 mL) was then added to the test tube. […] The test tube was sonicated for 15 minutes and centrifuged for 10 minutes (3000 g at 25° C.). An aliquot was filtered (Minisart 0.45 μm filter, Satorius) and diluted with HPLC mobile phase, then assayed. The tube was stored carefully in a 25° C. water bath after sampling and the remaining suspension was again sonicated and the process repeated 7 times at four hourly intervals. In these assays, standard curves were prepared by directly dissolving the esters in mobile phase. Concentrations for standard curves ranged from 1-50 μg/mL for all compounds. Furthermore, a manual injector (Waters Model U6K) was used (20 μL sample loop) which ensured that 20 μL was consistently injected onto the column and precluded the need for an internal standard.

[8] = Maximum solubility in 2% BSA Krebs-Henseleit buffer (pH 7.4); assay type: physicochemical; settings: 25 1° C.
From the text: The intrinsic solubility of diflunisal esters is extremely low (TABLE 2). The more lipophilic the analogue, the higher the solubility of solute under these conditions.

## CCCCCCC(=O)Oc1ccc(-c2ccc(F)cc2F)cc1C(=O)O [Compound C7D, n-heptanoyldiflunisal]
[1]
  CL inhibition (%): 0.9 ± 0.1%
[2]; 0.5 (unit uncertain) compound, U = undetectable
  CL inhibition (%): 21.3 ± 3.7%
[2]; 2.5 (unit uncertain) compound
  CL inhibition (%): 57.3 ± 1.9%
[2]; 5 (unit uncertain) compound
  CL inhibition (%): 87.4 ± 3.4%
[3]; C is the ED50 molar dose
  log 1/C: 4.52
[4]; preincubation 3 minutes
  Platelet Aggregation (% of control): 97.5 ± 0.9 % of control
[4]; preincubation 5 minutes
  Platelet Aggregation (% of control): 96.3 ± 1.1 % of control
[4]; preincubation 8 minutes
  Platelet Aggregation (% of control): 91.4 ± 0.1 % of control
[4]; preincubation 10 minutes
  Platelet Aggregation (% of control): 91.1 ± 2.1 % of control
[4]; preincubation 12 minutes
  Platelet Aggregation (% of control): 90.8 ± 0.8 % of control
[4]; preincubation 15 minutes
  Platelet Aggregation (% of control): 89.7 ± 2.1 % of control
[4]; preincubation 20 minutes
  Platelet Aggregation (% of control): 77.3 ± 3.1 % of control
[4]; preincubation 25 minutes
  Platelet Aggregation (% of control): 57.3 ± 0.1 % of control
[4]; preincubation 45 minutes
  Platelet Aggregation (% of control): 0 % of control

## O=C(O)c1ccccc1O [SA, 2-hydroxybenzoic acid, reference compound]
[5]
  Hepatic extraction: 0.05^c
[1]
  CL inhibition (%): 0.2 ± 0.0%
[2]; 2.5 (unit uncertain) compound
  CL inhibition (%): 52.9 ± 2.1%
[2]; 5 (unit uncertain) compound
  CL inhibition (%): 99.0 ± 1.0%
[3]; C is the ED50 molar dose, read-out: log 1/C (converted)
  EC50: 72.4 µM
[3]; molar dose for 50% reduction of LDH release compared to control, 30 min ischaemia, 100 min reperfusion, read-out: ED50 (the source's name)
  EC50: 72.6 µM

## CCC(=O)Oc1ccccc1C(=O)O [Compound C3SA, n-propionylsalicylic acid]
[6]; Krebs-Henseleit buffer 0% BSA, U = Undetectable
  Hydrolysis rate constant (k): 0.0147 ± 0.0025 hour^1
[6]; Krebs-Henseleit buffer 2% BSA
  Hydrolysis rate constant (k): 0.0102 ± 0.0031 hour^1
[7]
  Maximum solubility: 6.3 mM
[4]; preincubation 3 minutes
  Platelet Aggregation (% of control): 0 % of control
[4]; preincubation 5 minutes
  Platelet Aggregation (% of control): 0 % of control
[4]; preincubation 8 minutes
  Platelet Aggregation (% of control): 0 % of control
[4]; preincubation 10 minutes
  Platelet Aggregation (% of control): 0 % of control
[4]; preincubation 12 minutes
  Platelet Aggregation (% of control): 0 % of control
[4]; preincubation 15 minutes
  Platelet Aggregation (% of control): 0 % of control
[4]; preincubation 20 minutes
  Platelet Aggregation (% of control): 0 % of control
[4]; preincubation 25 minutes
  Platelet Aggregation (% of control): 0 % of control
[4]; preincubation 45 minutes
  Platelet Aggregation (% of control): 0 % of control

## CCC(=O)Oc1ccc(-c2ccc(F)cc2F)cc1C(=O)O [Compound C3D, n-propionyldiflunisal]
[8]
  Maximum solubility: 10.29 mM
[8]; mean standard deviation (n=3)
  Maximum solubility: 3.15 ± 0.02 mg/mL
[7]
  Maximum solubility: 0.01 mM
[4]; preincubation 3 minutes
  Platelet Aggregation (% of control): 96.5 ± 3.1 % of control
[4]; preincubation 5 minutes
  Platelet Aggregation (% of control): 89.3 ± 0.4 % of control
[4]; preincubation 8 minutes
  Platelet Aggregation (% of control): 67.3 ± 0.1 % of control
[4]; preincubation 10 minutes
  Platelet Aggregation (% of control): 49.7 ± 1.1 % of control
[4]; preincubation 12 minutes
  Platelet Aggregation (% of control): 19.3 ± 0.5 % of control
[4]; preincubation 15 minutes
  Platelet Aggregation (% of control): 0 % of control
[4]; preincubation 20 minutes
  Platelet Aggregation (% of control): 0 % of control
[4]; preincubation 25 minutes
  Platelet Aggregation (% of control): 0 % of control
[4]; preincubation 45 minutes
  Platelet Aggregation (% of control): 0 % of control
